Test results from patent publication US12295939B2, “Substituted benzothiophene analogs as selective estrogen receptor degraders” (The Board of Trustees of the University of Illinois, priority 2018, dated 2025).

Experiments:
[1] = test system: tamoxifen-resistant MCF-7:5C breast cancer cells; assay: Growth inhibition in tamoxifen-resistant MCF-7:5C breast cancer cells; format: cell-based; conditions: MCF7:5C, MCF-7:5C cells; for IC50: assayed from 0.01 nM to 1 uM; for Emax: read-out: MCF7:5C Max efficacy (%)
ER = molecular target: T1, ER (Homo sapiens, UniProt P03372); assay: Relative binding affinity (RBA)
T1 construct: endogenous in cells
T1 sequence (P03372 1-595): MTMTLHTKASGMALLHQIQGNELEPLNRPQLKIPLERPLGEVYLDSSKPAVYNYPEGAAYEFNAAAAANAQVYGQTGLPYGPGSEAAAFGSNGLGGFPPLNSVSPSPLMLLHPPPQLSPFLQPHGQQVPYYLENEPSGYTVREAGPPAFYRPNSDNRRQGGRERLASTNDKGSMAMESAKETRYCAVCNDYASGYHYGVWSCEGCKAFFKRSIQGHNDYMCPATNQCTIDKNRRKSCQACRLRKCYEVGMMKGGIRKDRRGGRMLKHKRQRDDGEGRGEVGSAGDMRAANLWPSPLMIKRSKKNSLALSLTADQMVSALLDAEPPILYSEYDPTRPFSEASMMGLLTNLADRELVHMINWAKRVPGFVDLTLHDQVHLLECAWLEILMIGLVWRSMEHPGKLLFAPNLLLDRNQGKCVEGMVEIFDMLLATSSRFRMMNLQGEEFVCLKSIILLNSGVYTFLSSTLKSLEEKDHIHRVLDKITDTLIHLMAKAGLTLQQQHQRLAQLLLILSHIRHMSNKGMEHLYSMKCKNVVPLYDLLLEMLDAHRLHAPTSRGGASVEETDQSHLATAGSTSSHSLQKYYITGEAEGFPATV
Experimental: (§1) Example compounds were assayed to determine ER downregulation, relative binding affinity, and ER antagonism.

ER (ERE) = assay: ER antagonism (ERE); format: cell-based
Experimental: as §1

[2] = test system: tamoxifen-sensitive ER+ MCF-7:WS8 breast cancer cells; assay: Growth inhibition in tamoxifen-sensitive ER+ MCF-7:WS8 breast cancer cells; format: cell-based; conditions: MCF7:WS8, MCF-7:WS8 cells; for IC50: assayed from 0.01 nM to 1 uM; for Emax: read-out: MCF7:WS8 Max efficacy (%)

Row | IC50 [1] [nM] | RBA (%) (ER) | IC50 (ER (ERE)) [nM] | IC50 [2] [nM] | Structure (SMILES) | Emax [1] [%] | Emax [2] [%]
1 | 1.9 ± 0.01 | – | […] | 0.48 ± 0.03 | C[C@]12CC[C@@H]3c4ccc(O)cc4C[C@@H](CCCCCCCCC[S+]([O-])CCCC(F)(F)C(F)(F)F)[C@H]3[C@@H]1CC[C@@H]2O (some centres unmarked) [Fulvestrant, fulvestrant, reference compound] | 55 | 75
2 | 0.16 ± 0.1 | – | 0.05 ± 0.001 | 0.36 ± 0.001 | Cc1cc(F)cc(C)c1C(=O)c1sc2cc(O)ccc2c1Oc1ccc(OCCN2CC[C@H](CF)C2)cc1 [Compound 64, (S)-(4-fluoro-2,6-dimethylphenyl)(3-(4-(2-(3-(fluoromethyl)pyrrolidin-1-yl)ethoxy)phenoxy)-6-hydroxybenzo[b]thiophen-2-yl)methanone] | 50 | 70
3 | 0.56 ± 0.005 | – | 7.4 ± 0.3 | 0.47 ± 0.009 | Cc1ccc(C(=O)c2sc3cc(O)ccc3c2Oc2ccc(OCCN3CC(CF)C3)cc2)c(C)c1 [Compound 63, (2,4-dimethylphenyl)(3-(4-(2-(3-(fluoromethyl)azetidin-1-yl)ethoxy)phenoxy)-6-hydroxybenzo[b]thiophen-2-yl)methanone] | 50 | 65
4 | 1 ± 0.8 | – | – | 0.42 ± 0.04 | Cc1cc(F)cc(C)c1C(=O)c1sc2cc(O)ccc2c1Oc1ccc(OC2CN(C3CC3)C2)cc1 [Compound 67, (3-(4-((1-cyclopropylazetidin-3-yl)oxy)phenoxy)-6-hydroxybenzo[b]thiophen-2-yl)(4-fluoro-2,6-dimethylphenyl) methanone] | 20 | 65
5 | > 1000 | 91.8 ± 6 | 2.1 ± 0.06 | 0.39 ± 0.05 | Cc1ccccc1C(=O)c1sc2cc(O)ccc2c1Oc1ccc(OCCN2CCCCC2)cc1 [Compound 65, (6-hydroxy-3-(4-(2-(piperidin-1-yl)ethoxy)phenoxy)benzo[b]thiophen-2-yl)(o-tolyl)methanone] | – | 65
6 | 0.12 ± 0.03 | – | – | 0.27 ± 0.006 | O=C(c1cccc(F)c1)c1sc2cc(O)ccc2c1Oc1ccc(OC2CN(CCCF)C2)cc1 [Compound 66, (3-fluorophenyl)(3-(4-((1-(3-fluoropropyl)azetidin-3-yl)oxy)phenoxy)-6-hydroxybenzo[b]thiophen-2-yl)methanone] | 35 | 70
7 | 1.4 ± 0.2 | 120 ± 13 | – | 0.28 ± 0.03 | O=C(c1cccc(F)c1)c1sc2cc(O)ccc2c1Oc1ccc(OCCN2CC(CF)C2)cc1 [Compound 62, (3-(4-(2-(3-(fluoromethyl)azetidin-1-yl)ethoxy)phenoxy)-6-hydroxybenzo[b]thiophen-2-yl)(3-fluorophenyl) methanone] | 60 | 75
8 | 0.58 ± 0.04 | 9.15 ± 0.9 | 2.8 ± 0.1 | 1.3 ± 0.1 | O=C(c1ccc(F)cc1)c1sc2cc(O)ccc2c1Oc1ccc(OCCN2CC(CF)C2)cc1 [Compound 61, (3-(4-(2-(3-(fluoromethyl)azetidin-1-yl)ethoxy)phenoxy)-6-hydroxybenzo[b]thiophen-2-yl)(4-fluorophenyl) methanone] | 55 | 70

Continued, compound first:

Row | Structure (SMILES) | IC50 [1] [nM] | RBA (%) (ER) | IC50 (ER (ERE)) [nM] | IC50 [2] [nM] | Emax [1] [%] | Emax [2] [%]
9 | Cc1cc(F)ccc1C(=O)c1sc2cc(O)ccc2c1Oc1ccc(OC2CN(CCCF)C2)cc1 [Compound 16, (4-fluoro-2-methylphenyl)(3-(4-((1-(3-fluoropropyl)azetidin-3-yl)oxy)phenoxy)-6-hydroxybenzo[b]thiophen-2-yl)methanone] | 0.95 ± 0.04 | 38.1 ± 9 | 11 ± 0.5 | 0.15 ± 0.02 | 50 | 70
10 | Cc1cccc(C)c1C(=O)c1sc2cc(O)ccc2c1Oc1ccc(OCCN2CC[C@@H](CF)C2)cc1 [Compound 9, (R)-(2,6-dimethylphenyl)(3-(4-(2-(3-(fluoromethyl)pyrrolidin-1-yl)ethoxy)phenoxy)-6-hydroxybenzo[b]thiophen-2-yl)methanone] | 0.23 ± 0.06 | – | 45 ± 15 | 0.1 ± 0.01 | 25 | 85
11 | Cc1cc(F)cc(C)c1C(=O)c1sc2cc(O)ccc2c1Oc1ccc(OCCN2CC[C@@H](CF)C2)cc1 [Compound 35, (R)-(4-fluoro-2,6-dimethylphenyl)(3-(4-(2-(3-(fluoromethyl)pyrrolidin-1-yl)ethoxy)phenoxy)-6-hydroxybenzo[b]thiophen-2-yl)methanone] | 0.28 ± 0.07 | – | 12 ± 2 | 0.56 ± 0.01 | 40 | 65
12 | Cc1ccccc1C(=O)c1sc2cc(O)ccc2c1Oc1ccc(OCCN2CC(CF)C2)cc1 [Compound 8, (3-(4-(2-(3-(fluoromethyl)azetidin-1-yl)ethoxy)phenoxy)-6-hydroxybenzo[b]thiophen-2-yl)(o-tolyl)methanone] | 0.65 ± 0.03 | 46.5 ± 7 | 1.5 ± 0.09 | 0.73 ± 0.02 | 40 | 70
13 | Cc1cc(F)cc(C)c1C(=O)c1sc2cc(O)ccc2c1Oc1ccc(OC2CN(CCCF)C2)cc1 [Compound 17, (4-fluoro-2,6-dimethylphenyl)(3-(4-((1-(3-fluoropropyl)azetidin-3-yl)oxy)phenoxy)-6-hydroxybenzo[b]thiophen-2-yl)methanone] | 0.15 ± 0.06 | – | – | 0.55 ± 0.01 | 70 | 75
14 | Cc1ccccc1C(=O)c1sc2cc(O)ccc2c1Oc1ccc(OCCN2CCC2)cc1 [Compound 59, (3-(4-(2-(azetidin-1-yl)ethoxy)phenoxy)-6-hydroxybenzo[b]thiophen-2-yl)(o-tolyl)methanone] | 0.31 ± 0.07 | – | – | 0.5 ± 0.05 | 35 | 70
15 | Cc1cc(F)cc(C)c1C(=O)c1sc2cc(O)ccc2c1Oc1ccc(OCCN2CC(CF)C2)cc1 [Compound 5, (4-fluoro-2,6-dimethylphenyl)(3-(4-(2-(3-(fluoromethyl)azetidin-1-yl)ethoxy)phenoxy)-6-hydroxybenzo[b]thiophen-2-yl)methanone] | 3.4 ± 0.5 | – | 3.5 ± 0.06 | 0.41 ± 0.01 | 55 | 70
16 | O=C(c1ccccc1)c1sc2cc(O)ccc2c1Oc1ccc(OCCN2CC(CF)C2)cc1 [Compound 3, (3-(4-(2-(3-(fluoromethyl)azetidin-1-yl)ethoxy)phenoxy)-6-hydroxybenzo[b]thiophen-2-yl)(phenyl)methanone] | 15 ± 4 | 30.7 ± 7 | 4.3 ± 0.1 | 0.55 ± 0.01 | 60 | 65
17 | O=C(c1ccccc1)c1sc2cc(O)ccc2c1Oc1ccc(OC2CN(CCCF)C2)cc1 [Compound 15, (3-(4-((1-(3-fluoropropyl)azetidin-3-yl)oxy)phenoxy)-6-hydroxybenzo[b]thiophen-2-yl)(phenyl)methanone] | 0.12 ± 0.02 | – | 5.2 ± 0.06 | 0.15 ± 0.02 | 40 | 60
18 | Cc1ccccc1C(=O)c1sc2cc(O)ccc2c1Oc1ccc(OC2CN(CCCF)C2)cc1 [Compound 20, (3-(4-((1-(3-fluoropropyl)azetidin-3-yl)oxy)phenoxy)-6-hydroxybenzo[b]thiophen-2-yl)(o-tolyl)methanone] | 4.9 ± 0.2 | 27.8 ± 8 | 5.3 ± 0.08 | 0.04 ± 0.006 | 70 | 75
19 | Cc1ccccc1C(=O)c1sc2cc(O)ccc2c1Oc1ccc(OCCN2CC(C)C2)cc1 [Compound 60, (6-hydroxy-3-(4-(2-(3-methylazetidin-1-yl)ethoxy)phenoxy)benzo[b]thiophen-2-yl)(o-tolyl)methanone] | 0.65 ± 0.01 | – | 1.9 ± 0.06 | 0.02 ± 0.004 | 55 | 75
20 | O=C(c1ccc(O)cc1)c1sc2cc(O)ccc2c1Oc1ccc(OCCN2CC(CF)C2)cc1 [Compound 1, (3-(4-(2-(3-(fluoromethyl)azetidin-1-yl)ethoxy)phenoxy)-6-hydroxybenzo[b]thiophen-2-yl)(4-hydroxyphenyl) methanone] | 1.2 ± 0.3 | – | 6.4 ± 0.4 | 1.1 ± 0.1 | 30 | 75
21 | Cc1cc(O)ccc1C(=O)c1sc2cc(O)ccc2c1Oc1ccc(OCCN2CC(CF)C2)cc1 [Compound 2, (3-(4-(2-(3-(fluoromethyl)azetidin-1-yl)ethoxy)phenoxy)-6-hydroxybenzo[b]thiophen-2-yl)(4-hydroxy-2-methylphenyl) methanone] | 7.9 ± 0.15 | – | – | 0.5 ± 0.05 | 45 | 80
22 | Cc1cc(F)ccc1C(=O)c1sc2cc(O)ccc2c1Oc1ccc(OCCN2CC(CF)C2)cc1 [Compound 4, (4-fluoro-2-methylphenyl)(3-(4-(2-(3-(fluoromethyl)azetidin-1-yl)ethoxy)phenoxy)-6-hydroxybenzo[b]thiophen-2-yl)methanone] | 0.2 ± 0.02 | – | 2.7 ± 0.09 | 0.3 ± 0.02 | 50 | 75
